Results published in paper PMC4767605 (Cancer chemotherapy and pharmacology, 2016).

What was measured:
[1] = tested on: human NSCLC cell line Calu-6; conditions: ASP9853 alone, 100 mg/kg oral, twice daily
prostate cancer (PC-3) = test: Prostate cancer xenograft in mice, combination with paclitaxel; type: in vivo; conditions: ASP9853 in combination with paclitaxel; PC-3 xenograft; data not shown
[2] = Phase I study: plasma pharmacokinetics of ASP9853 and docetaxel; type: in vivo, human; conditions: for Median ASP9853 Cmax / Median AUC24 for ASP9853: Cycle 1/Day 1
advanced solid tumors = conditions: ASP9853 + docetaxel
[3] = tested on: breast cancer (MDA-MB-231); test: Breast cancer xenograft in mice, combination with paclitaxel; type: in vivo; conditions: ASP9853 in combination with paclitaxel; MDA-MB-231 xenograft; data not shown
[4] = Cohort 1: ASP9853 25 mg + docetaxel 60 mg/m^2
[5] = Cohort 2: ASP9853 25 mg + docetaxel 75 mg/m^2
[6] = Cohort 3: ASP9853 37.5 mg + docetaxel 60 mg/m^2
[7] = Cohort 4: ASP9853 50 mg + docetaxel 60 mg/m^2

O.O.O=C(/C=C/c1ccc(Cl)cc1)N[C@@H](Cc1ccccn1)C(=O)NCC(=O)N1CCC(Oc2cc(C(F)(F)F)ncn2)CC1 [ASP9853, (2E)-3-(4-chlorophenyl)-N-[(1S)-2-oxo-2-{[2-oxo-2-(4-{[6-(trifluoromethyl)-4-pyrimidinyl]oxy}-1-piperidinyl)ethyl]amino}-1-(2-pyridinylmethyl)ethyl]acrylamide dehydrate]
Antitumor activity in the Calu-6 NSCLC xenograft model [1]: no antitumor activity | Tumor growth inhibition (prostate cancer (PC-3)): greater tumor growth inhibition | ASP9853 PK profiles in patients with versus without neutropenic DLTs ([2]; Cycle 1, Day 1, high interpatient variability): no clear difference | Median ASP9853 Cmax [2, 4]: 747 ng/mL | Median AUC24 for ASP9853 [2, 4]: 3769 ng·h/mL | Median ASP9853 Cmax [2, 5]: 1019 ng/mL | Median AUC24 for ASP9853 [2, 5]: 8839 ng·h/mL | Median ASP9853 Cmax [2, 6]: 2450 ng/mL | Median AUC24 for ASP9853 [2, 6]: 7075 ng·h/mL | Median ASP9853 Cmax [2, 7]: 1490 ng/mL | Median AUC24 for ASP9853 [2, 7]: 6922 ng·h/mL | ASP9853 cleared from plasma within 24 hours after administration ([2]; in vivo): more than 95% | Tmax of ASP9853 ([2]; oral, patients with advanced solid tumors): 30 to 252 min | ASP9853 plasma exposure (AUC24) when administered in combination with docetaxel ([2]; sample size too small for statistical significance, data not shown): appeared lower | Duration of stable disease, mean (SD) (advanced solid tumors): 49.4 (47.2) days | Duration of stable disease, median [range] (advanced solid tumors): 78 [1–133] days | Patients with best overall response of stable disease (advanced solid tumors; Eight patients): 38.1% | Objective radiographic responses (advanced solid tumors; eighteen patients evaluable): no objective radiographic responses were observed | Tumor growth inhibition [3]: greater tumor growth inhibition
